Assay results from ChEMBL document CHEMBL3272303.
Calls of active or inactive are those of the source. The rule behind the calls is not given here.

Columns and labels:
[1] = molecular target: Beta-2 adrenergic receptor (Rattus norvegicus) (UniProt P10608); assay: Agonist activity at beta 2 adrenergic receptor in Sprague-Dawley rat adipocytes assessed as lipolysis at 10^-9 to 10^-4 M after 1 hr; type: cell-based
[2] = molecular target: Beta-2 adrenergic receptor (Cavia porcellus) (UniProt Q8K4Z4); assay: Agonist activity at beta 2 adrenergic receptor in guinea pig trachea assessed as tracheal relaxation at 10^-9 to 10^-4 M
[3] = molecular target: Beta-2 adrenergic receptor (Cavia porcellus) (UniProt Q8K4Z4); assay: Antagonist activity at beta 2 adrenergic receptor in guinea pig trachea assessed as inhibition of trimetoquinol-induced tracheal relaxation at 10^-4 M preincubated for 30 mins followed by trimetoquinol addition measured within 1 hr
[4] = molecular target: Beta-1 adrenergic receptor (Cavia porcellus) (UniProt B0FL73); assay: Partial agonist activity at beta 1 adrenergic receptor in guinea pig right atria assessed as chronotropic response measured over 3 mins
[5] = molecular target: Beta-2 adrenergic receptor (Cavia porcellus) (UniProt Q8K4Z4); settings: Trachea
[6] = molecular target: Beta-1 adrenergic receptor (Cavia porcellus) (UniProt B0FL73); assay: Antagonist activity at beta 1 adrenergic receptor in guinea pig right atria assessed as inhibition of trimetoquinol-induced chronotropic response at 10^-4 M preincubated for 30 mins followed by trimetoquinol addition measured within 45 mins relative to control
[7] = molecular target: Beta-1 adrenergic receptor (Cavia porcellus) (UniProt B0FL73); assay: Competitive antagonist activity at beta 1 adrenergic receptor in guinea pig right atria assessed as inhibition of trimetoquinol-induced chronotropic response at 10^-6 to 10^-5 M preincubated for 30 mins followed by trimetoquinol addition measured within 1 hr
[8] = molecular target: Beta-1 adrenergic receptor (Cavia porcellus) (UniProt B0FL73); assay: Antagonist activity at beta 1 adrenergic receptor in guinea pig right atria assessed as inhibition of 10^-3 M isoproterenol-induced chronotropic response at 10^-4 M
[9] = molecular target: Beta-1 adrenergic receptor (Cavia porcellus) (UniProt B0FL73); assay: Antagonist activity at beta 1 adrenergic receptor in guinea pig right atria assessed as inhibition of 10^-3 M trimetoquinol-induced chronotropic response at 10^-4 M preincubated for 30 mins followed by trimetoquinol addition measured within 1 hr

Beta-2 adrenergic receptor (Cavia porcellus), sequence (Q8K4Z4 whole entry, looked up): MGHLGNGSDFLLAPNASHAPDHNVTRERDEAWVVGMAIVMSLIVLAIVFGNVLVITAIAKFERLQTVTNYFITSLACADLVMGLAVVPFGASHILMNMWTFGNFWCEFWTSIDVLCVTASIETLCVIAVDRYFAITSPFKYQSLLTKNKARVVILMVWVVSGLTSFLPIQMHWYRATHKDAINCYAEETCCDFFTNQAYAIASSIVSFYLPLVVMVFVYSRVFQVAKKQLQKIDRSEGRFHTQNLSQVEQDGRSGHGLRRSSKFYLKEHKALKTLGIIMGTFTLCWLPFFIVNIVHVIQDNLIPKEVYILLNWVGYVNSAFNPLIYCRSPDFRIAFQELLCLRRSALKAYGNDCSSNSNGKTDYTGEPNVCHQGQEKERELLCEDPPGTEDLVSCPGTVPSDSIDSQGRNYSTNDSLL
Beta-1 adrenergic receptor (Cavia porcellus), sequence (B0FL73 1-467): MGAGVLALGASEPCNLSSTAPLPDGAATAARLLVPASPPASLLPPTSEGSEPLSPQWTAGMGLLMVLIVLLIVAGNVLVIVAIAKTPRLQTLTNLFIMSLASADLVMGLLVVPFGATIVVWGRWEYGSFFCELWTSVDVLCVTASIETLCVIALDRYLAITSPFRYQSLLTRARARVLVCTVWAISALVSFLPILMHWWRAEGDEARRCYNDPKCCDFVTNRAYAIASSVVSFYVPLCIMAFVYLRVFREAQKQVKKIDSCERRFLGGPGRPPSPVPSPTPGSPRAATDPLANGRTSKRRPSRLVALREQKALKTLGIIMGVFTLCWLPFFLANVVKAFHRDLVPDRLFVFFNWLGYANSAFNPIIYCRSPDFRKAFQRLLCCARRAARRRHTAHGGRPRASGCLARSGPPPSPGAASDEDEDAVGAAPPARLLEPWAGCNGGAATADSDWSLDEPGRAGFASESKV
Beta-2 adrenergic receptor (Rattus norvegicus), sequence (P10608 whole entry, looked up): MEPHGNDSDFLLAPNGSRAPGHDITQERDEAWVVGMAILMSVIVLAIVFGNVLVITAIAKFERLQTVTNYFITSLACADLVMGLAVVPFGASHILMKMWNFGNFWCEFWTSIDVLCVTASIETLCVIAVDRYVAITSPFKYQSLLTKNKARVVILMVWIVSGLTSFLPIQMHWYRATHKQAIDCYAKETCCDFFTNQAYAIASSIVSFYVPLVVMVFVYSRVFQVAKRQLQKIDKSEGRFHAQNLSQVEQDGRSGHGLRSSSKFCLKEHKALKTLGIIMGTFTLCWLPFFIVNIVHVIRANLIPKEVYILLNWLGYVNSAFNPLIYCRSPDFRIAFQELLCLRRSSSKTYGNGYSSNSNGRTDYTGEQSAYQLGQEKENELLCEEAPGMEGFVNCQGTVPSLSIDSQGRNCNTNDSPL

Activity [1]	Activity [2]	inhibition [3]	Activity [4]	pD2 [5]	inhibition [6]	inhibition [7]	inhibition [8]	inhibition [9]	Compound
inactive	inactive	inactive	Active						COc1cc(CC2(C)NCCc3cc(O)c(O)cc32)cc(OC)c1OC (configuration not stated)
				7					COc1cc(C[C@@H]2NCCc3cc(O)c(O)cc32)cc(OC)c1OC
inactive	inactive	inactive			< 10%	Active	Active	Active	COc1cc(CC2(Cc3ccccc3)NCCc3cc(O)c(O)cc32)cc(OC)c1OC (configuration not stated)
